Experimental data published in patent US20070208043A1, “Use of Serum Amyloid A Gene in Diagnosis and Treatment of Glaucoma and Identification of Anti-Glaucoma Agents” (ALCON, INC., priority 2003, published 2007).
Entries after “also recorded” stand apart in the source; their conditions may differ. Like-named read-outs stand apart in the source and are kept apart here.

Key:
[1] = tested on: SAA induced IL-8 secretion in TM cells; assay: Inhibition of SAA induced IL-8 secretion in TM cells (IL-8 in media by ELISA); type: cell-based
Description: FIG. 11. Effect of MAP p38 kinase inhibitors on induction of IL-8 by SAA treatment (1 μg/ml) in TM cells. […] IL-8 was measured in the media by ELISA.
(§1) FIG. 12. […] NTM650-03, p9 or HL-60 cells were treated in serum-free DMEM for 4 hours with 1 μg/ml SAA and the indicated concentrations of SB202580. IL-8 was measured in the media by ELISA.
(§2) One pathway for upregulation of IL-8 is through activation of MAP kinases.

[2] = tested on: SAA stimulated IL-8 secretion in HL-60 cells; assay: Inhibition of SAA stimulated IL-8 secretion in HL-60 cells (IL-8 in media by ELISA); type: cell-based; details: for Times more effective than SB203580: HL60 cells, inhibition curves; for IC50: Homo sapiens, read-out: Calculated IC50, inhibition of SAA stimulated IL-8 secretion
Description: as §1
FIG. 13. […] IL-8 was measured in the media by ELISA.
as §2

[3] = tested on: Adv.SAA2-induced IOP in mouse; assay: Mouse IOP after intravitreal injection of Adv.SAA2 + anti-CD40L; topical p38 MAPK inhibitor; details: topical 1% b.i.d.
Description: Contralateral eye of each animal was not injected. In addition to Adv, each animal received IP injection of anti-CD40L (0.5 mg/injection) on days −1, 0, 1, 2, 5, 9, & 14 to prolong the expression period of the Adv.SAA2. Mouse IOP was measured by Tonolab in a mask way. Mean of IOP for each eye was obtained from 18 to 30 measurements.

plasma SAA concentration = details: in vivo; cited from earlier work
[4] = tested on: perfused human anterior segments; assay: Perfusion cultured human eyes treated with recombinant SAA; details: 1 μg/mL, all five eyes
Description: FIG. 9. Effect of recombinant human Serum Amyloid A (rhSAA, 1 μg/mL; treatment started at time 0) on IOP of perfused human anterior segments.
FIG. 10. Effect of recombinant human Serum Amyloid A (rhSAA, 1 μg/mL; treatment started at time 0) on interleukin-8 (IL-8) level in the perfusate of perfused human anterior segments.
Five pairs of human eyes were perfused with media containing either recombinant SAA (1 μg/mL) (experimental eye) or an equivalent volume of vehicle (control eye). At the end of the culture period, 4 quadrants of each eye were examined by transmission electron microscopy to determine TM tissue viability. Perfusate of each eye was collected and used for ELISA measurement of IL-8 level. […] The change in IOP correlated with SAA-induced increase in interleukin-8 in the perfusates. All five pairs of eyes had acceptable post-perfusion TM viability scores.

HL-60 cells = assay: IL-8 secretion by HL-60 cells in response to rhSAA; type: cell-based; details: four hours, increasing concentrations
Description: FIG. 5. IL-8 secretion by HL-60 cells in response to increasing concentrations of rhSAA.
Cytokine-like properties of SAA include induction of IL-8 secretion by neutrophils. (Furlaneto and Campa, 2002; He et al. 2003). HL-60 cells, a promyelocytic cell line, was identified that responds to SAA with increased IL-8 secretion, and can be used for in vitro assays of SAA function. HL-60 cells were treated for four hours with increasing concentrations of recombinant human SAA, and IL-8 was measured in the media by ELISA. […] HL-60 cells can be used as a surrogate cell line for functional assays to identify agents that alter SAA function and expression levels.

[5] = read-out: % Inhibition of SAA induced IL-8 secretion
[6] = 10 μM, TM cells, read-out: % Inhibition of SAA induced IL-8 secretion
[7] = 50 μM, TM cells, read-out: % Inhibition of SAA induced IL-8 secretion
[8] = 1 μM, TM cells, read-out: % Inhibition of SAA induced IL-8 secretion

Fc1ccc(-c2c(-c3ccncc3)[nH]c3cccnc23)cc1 [4-azaindole, 3-(4-fluorophenyl)-2-(pyridin-4-yl)-1H-pyrrolo[3,2-b]pyridine]
Inhibition of SAA induced IL-8 expression (in words) ([1]; TM cells): most potent
inhibition at 10 µM [1, 5]: 22.6%
inhibition at 50 µM [1, 5]: 94.3%
Times more effective than SB203580 [2]: approximately 10 times
IC50 ([2]; HL-60, 4 h): 300 nM
Effect on IOP in the non-injected eyes [3]: did not affect IOP
Effect on Ad.SAA2-induced ocular hypertension (IOP) ([3]; days -1 to 7 and 13 to 17, Ad.SAA2 2×10^7 pfu/eye + antiCD40L): significantly inhibited; also recorded: blocked
Effect on iris hyperemia in the injected eyes ([3]; Ad.SAA2-injected eyes): did not affect hyperemia
Time to lower IOP to baseline after drug administration was resumed at day 13 ([3]; Ad.SAA2-injected mouse eyes): 3 days

Cc1ccc(-n2nc(C(C)(C)C)cc2NC(=O)Nc2ccc(OCCN3CCOCC3)c3ccccc23)cc1 [BIRB-796, 1-(5-tert-butyl-2-p-tolyl-2H-pyrazol-3-yl)-3(4-(2-morpholin-4-yl-ethoxy)naph-thalen-1-yl)urea]
inhibition at 10 µM [1, 6]: 28.9%
inhibition at 50 µM [1, 7]: 78.1%
Inhibition of SAA induced IL-8 expression (in words) ([1]; TM cells): most potent
Times more effective than SB203580 [2]: approximately 10 times
IC50 ([2]; HL-60 cells, serum-free DMEM, 4 hours, 1 μg/ml SAA): 500 nM

COc1cccc(-c2cc(=O)c3ccccc3o2)c1N [PD98059, 2′-amino-3′-methoxyflavone]
inhibition at 50 µM [1, 7]: 34%

Oc1ccc(-c2nc(-c3ccc(F)cc3)c(-c3ccncc3)[nH]2)cc1 [SB202190, 4-[4-(4-fluorophenyl)-5-(4-pyridinyl)-1H-imidazol-2-yl]phenol]
inhibition at 1 µM [1, 8]: 17.2%
inhibition at 10 µM [1, 6]: 43.3%
inhibition at 50 µM [1, 7]: 38.2%

C[S+]([O-])c1ccc(-c2nc(-c3ccc(F)cc3)c(-c3ccncc3)[nH]2)cc1 (stereo not shown) [SB203580, 4-(4-fluorophenyl)-2-(4-methylsulfinylphenyl)-5-(4-pyridyl)-1H-imidazole]
Inhibition of SAA induced IL-8 expression (in words) ([1]; TM cells): most potent
inhibition at 1 µM [1, 5]: 16.3%
inhibition at 10 µM [1, 5]: 38.1%
inhibition at 25 µM [1, 5]: 61%
inhibition at 50 µM [1, 5]: 73.8%
inhibition at 100 µM [1, 5]: 98.7%

N#CC(=C(/N)Sc1ccccc1N)/C(C#N)=C(/N)Sc1ccccc1N [U0126, 1,4-diamino-2,3-dicyano-1,4-bis(2-aminophynyltio)butadiene]
inhibition at 1 µM [1, 8]: 30.9%
inhibition at 10 µM [1, 6]: 50.6%
inhibition at 50 µM [1, 7]: 53%

Cc1cccc(Nc2cc(Cl)nc(SCC(=O)O)n2)c1C [WY 14643, (4-chloro-6-(2,3-xylidino)-2-pryrimidinylthiol)-acetic acid]
Plasma SAA concentration (plasma SAA concentration): reduces

B1: recombinant SAA: recombinant human Serum Amyloid A protein (protein, UniProt P0DJI8 19-122, looked up)
Serum amyloid A-1 protein: RSFFSFLGEAFDGARDMWRAYSDMREANYIGSDKYFHARGNYDAAKRGPGGAWAAEVITDARENIQRFFGHGAEDSLADQAANEWGRSGKDPNHFRPAGLPEKY
IL-8 level in perfusate [4]: elevated IL-8 level
IOP of perfused human eyes ([4]; within 24 h of treatment): elevated IOP
IL-8 secretion (HL-60 cells): increased in a dose dependent manner
